Measurements as given in publication PMC10855341, “Inhibition of Apoptosis in a Model of Ischemic Stroke Leads to Enhanced Cell Survival, Endogenous Neural Precursor Cell Activation and Improved Functional Outcomes” (International Journal of Molecular Sciences, 2024).

Test system: neural precursor cells (NPCs) from SVZ neurospheres
Assay: In vitro NPC cell viability with cisplatin (DAPI+ counts)
Format: cell-based, adult mice (C57BL/6)
Settings: 20 µM cisplatin alone, 8 h; mean ± SEM, n = 3 independent experiments
Protocol: NSC neurospheres were obtained from control […] C57BL/6 periventricular dissections, as described above. Neurospheres were collected and mechanically disassociated into single cells and plated in 96-well plates coated with 4% Matrigel (Corning 354234, Corning, NY, USA) at a density of 20,000 cells per well in 100 µL of SFM with […] epidermal growth factor (GIBCO, PMG8041, Waltham, MA, USA), […] basic fibroblast growth factor (GIBCO, PHG0266, Waltham, MA, USA) and 2 µg/mL heparin (Sigma-Aldrich, H3149, St. Louis, MO, USA) (referred to as growth factors). One day later, the media was removed and replaced with fresh SFM, growth factors, 20 µM cisplatin (Sigma-Aldrich, P4394, St. Louis, MO, USA) and 10 µM NWL283 (New World Laboratories, Laval, QC, Canada) in sterile PBS. The vehicle group received media containing SFM, growth factors and PBS.
To assess cell viability at 2 h and 8 h, cells were fixed with 4% PFA for 15 min and washed three times for 5 min in PBS. Cells were incubated for 10 min with 1:10,000 DAPI (Invitrogen, D130, Waltham, MA, USA), then washed three times for 5 min in PBS and imaged on an Axio Observer Zeiss microscope. DAPI cells were counted using ImageJ (https://imagej.net/ij/) analyze particle detection and then manually confirmed. Data were collected from three independent experiments.

Compound: N.N.[Cl][Pt][Cl] [cisplatin]
- cell survival, DAPI+ cells: 49.09 ± 7.28 DAPI+ cells
